Values quoted from earlier work in patent publication US20050261335A1, “Carvedilol formulations” (priority 2002, published 2005).
Like-named read-outs stand apart in the source and are kept apart here.

solubility (above pH 9.0): < 0.001 mg/mL
saturation solubility (pH 5, room temperature): ~0.1 mg/mL
saturation solubility (pH 7, room temperature): ~0.023 mg/mL
Compound: COc1ccccc1OCCNCC(O)COc1cccc2[nH]c3ccccc3c12 (racemic) [Carvedilol]
